Test results taken from patent US6845328B2, “Screening methods using the crystal structure of ribosomal protein L11/GTPase activating region rRNA complex” (University of Utah Research Foundation, priority 1999, dated 2005).
Entries after “also recorded” stand apart in the source; their conditions may differ.

Columns and labels:
[1] = test system: E. coli S30 lysate and luciferase mRNA; conditions: bioluminescence; cited from earlier work
70S ribosomes / EF-G = 70S ribosomes / EF-G (Escherichia coli, UniProt P0A7J7); conditions: cited from earlier work
GAR RNA = conditions: RNA without L11; read-out: Kd, affinity for the RNA alone; cited from earlier work
50S subunits = 50S subunits (Escherichia coli, UniProt P0A7J7); conditions: cited from earlier work
isolated L11 = isolated L11 (Escherichia coli, UniProt P0A7J7); conditions: L11 without RNA; cited from earlier work
23S RNA = conditions: equilibrium dialysis; read-out: dissociation constant of thiostrepton/23S RNA; cited from earlier work
GTPase centre-59 mer = assay: Filter binding assay of thiostrepton to GTPase centre RNA (96-well, displacement format); conditions: read-out: dissociation constant for the thiostrepton/GTPase centre-59 mer complex
Method: Thiostrepton binding to GTPase centre RNA can be monitored by a filter binding assays (Uchiumi et al., 1995, Biol. Chem., 270(50):29889-93; Draper et al., 1988, Methods Enzymol., 164:203-20). The filter binding assay can be transformed to a 96-well format using Millipore MHAB (mixed cellulose ester) 96-well plates. The dissociation constant for the thiostrepton/GTPase centre-59 mer complex of 1 uM is in good accordance with the literature. Additionally, filter binding can show the cooperativity in binding of thiostrepton and L11. Thermotoga maritima ribosomes are known to be sensitive to thiostrepton (Londei et al., 1988, J. Bacteriol., 170(9):4353-60), although 100-fold less than B. stearothermophilus ribosomes. The affinity of thiostrepton for Thermotoga GTPase center RNA in vitro has not yet been determined.
^35S- or ^32P-labelled RNA is prepared by transcription in the presence of radiolabelled nucleotides. The labelled RNAs are purified by gel electrophoresis or chromatography by reverse-phase. […] Association constants between RNA and thiostrepton in the presence or absence of inhbitor are determined in 100 ul reactions containing 10 mM Tris-HCl (pH 7.4), 3 mM MgCl2, 175 mM NH4Cl and 5% v/v DMSO. […]
The relative amounts of RNA retained in the presence and absence of inhibitor can be determined by quantitation of the radioactivity on each filter. […]

intact ribosomes = intact ribosomes (Escherichia coli, UniProt P0A7J7); conditions: higher than for 23S RNA; cited from earlier work
[2] = molecular target: T1, Thermotoga maritima ribosomes (Thermotoga maritima, UniProt P29395); conditions: less than B. stearothermophilus ribosomes; cited from earlier work
T1 sequence (P29395 2-141 limits assumed): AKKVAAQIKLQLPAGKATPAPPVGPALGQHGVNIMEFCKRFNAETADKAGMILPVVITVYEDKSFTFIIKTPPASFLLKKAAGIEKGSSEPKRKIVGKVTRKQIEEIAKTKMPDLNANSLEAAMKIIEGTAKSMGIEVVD

Sequence of 70S ribosomes / EF-G (P0A7J7 2-142): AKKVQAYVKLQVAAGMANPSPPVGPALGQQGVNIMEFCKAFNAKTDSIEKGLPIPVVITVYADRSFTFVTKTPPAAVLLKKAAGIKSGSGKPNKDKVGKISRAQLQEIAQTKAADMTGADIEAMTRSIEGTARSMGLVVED
Sequence of intact ribosomes (P0A7J7 2-142): as above
Sequence of 50S subunits (P0A7J7 2-142): as above
Sequence of isolated L11 (P0A7J7 whole entry): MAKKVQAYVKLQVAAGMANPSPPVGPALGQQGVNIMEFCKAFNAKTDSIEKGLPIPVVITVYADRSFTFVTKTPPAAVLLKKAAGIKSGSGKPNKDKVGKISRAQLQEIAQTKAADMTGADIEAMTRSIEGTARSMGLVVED

## O=C(N[C@H](CO)[C@H](O)c1ccc([N+](=O)[O-])cc1)C(Cl)Cl [chloramphenicol]
[1]
  yield of active luciferase compared to the control: decrease in yield of active luciferase

## C=C(NC(=O)C(=C)NC(=O)c1csc(C2=N[C@@H]3c4csc(n4)[C@H]4NC(=O)c5csc(n5)[C@H]([C@](C)(O)[C@@H](C)O)NC(=O)[C@H]5CSC(=N5)/C(=C/C)NC(=O)[C@H]([C@@H](C)O)NC(=O)c5csc(n5)[C@]3(CC2)NC(=O)[C@H](C)NC(=O)C(=C)NC(=O)[C@H](C)NC(=O)[C@H]([C@@H](C)CC)N[C@@H]2C=Cc3c([C@H](C)O)cc(nc3[C@H]2O)C(=O)O[C@@H]4C)n1)C(N)=O [thiostrepton]
70S ribosomes / EF-G
  effect on hydrolysis of GTP by EF-G: inhibits elongation factor G (EF-G)-dependent GTP hydrolysis; also recorded: inhibits hydrolysis of GTP by EF-G
[1]
  yield of active luciferase compared to the control: decrease in yield of active luciferase
GAR RNA
  Kd: 400 nM
50S subunits
  binding to 50S subunits: binds essentially irreversibly to 50S subunits
Isolated L11
  binding to isolated L11: does not bind isolated L11
23S RNA
  Kd: 230 nM
GTPase centre-59 mer
  Kd: 1000 nM
Intact ribosomes
  affinity to intact ribosomes relative to 23S RNA: 100-1000 fold
[2]
  sensitivity of ribosomes to thiostrepton relative to B. stearothermophilus ribosomes: 100 fold

## C/C=C(\NC(=O)c1csc(-c2csc(-c3ccc4c(n3)-c3csc(n3)[C@H]([C@@H](C)O)NC(=O)c3csc(n3)[C@H](C(C)C)NC(=O)c3csc(n3)/C(=C/C)NC(=O)[C@H]([C@@H](C)O)NC(=O)c3csc-4n3)n2)n1)C(=O)NC[C@@H](C)O [micrococcin]
70S ribosomes / EF-G
  effect on hydrolysis of GTP by EF-G: stimulates GTP hydrolysis by EF-G
